Article PMC5333991 (Journal of biomolecular screening, 2009)

How the values were obtained:
CYP3A4 = CYP3A4 (Homo sapiens, UniProt P08684); assay: fluorogenic CYP450 inhibition assay; assay type: biochemical
CYP2C9 = CYP2C9 (Homo sapiens, UniProt P11712); assay: in vitro
Chain of CYP2C9 (P11712 whole entry): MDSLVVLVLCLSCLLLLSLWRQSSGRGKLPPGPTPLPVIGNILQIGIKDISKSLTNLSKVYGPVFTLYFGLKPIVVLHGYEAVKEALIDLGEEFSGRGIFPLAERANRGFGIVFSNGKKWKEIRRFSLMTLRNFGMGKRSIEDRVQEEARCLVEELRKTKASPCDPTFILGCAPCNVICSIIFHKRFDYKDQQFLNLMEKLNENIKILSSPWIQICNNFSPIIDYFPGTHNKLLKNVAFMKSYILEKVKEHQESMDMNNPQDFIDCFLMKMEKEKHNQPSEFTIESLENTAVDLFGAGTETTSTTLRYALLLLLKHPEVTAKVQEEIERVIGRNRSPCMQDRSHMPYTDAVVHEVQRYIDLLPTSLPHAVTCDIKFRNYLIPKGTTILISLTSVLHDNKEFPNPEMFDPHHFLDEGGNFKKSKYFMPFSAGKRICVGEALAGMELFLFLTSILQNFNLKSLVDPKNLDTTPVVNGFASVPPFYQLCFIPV
Chain of CYP2C9 (P16435 2-677 partner): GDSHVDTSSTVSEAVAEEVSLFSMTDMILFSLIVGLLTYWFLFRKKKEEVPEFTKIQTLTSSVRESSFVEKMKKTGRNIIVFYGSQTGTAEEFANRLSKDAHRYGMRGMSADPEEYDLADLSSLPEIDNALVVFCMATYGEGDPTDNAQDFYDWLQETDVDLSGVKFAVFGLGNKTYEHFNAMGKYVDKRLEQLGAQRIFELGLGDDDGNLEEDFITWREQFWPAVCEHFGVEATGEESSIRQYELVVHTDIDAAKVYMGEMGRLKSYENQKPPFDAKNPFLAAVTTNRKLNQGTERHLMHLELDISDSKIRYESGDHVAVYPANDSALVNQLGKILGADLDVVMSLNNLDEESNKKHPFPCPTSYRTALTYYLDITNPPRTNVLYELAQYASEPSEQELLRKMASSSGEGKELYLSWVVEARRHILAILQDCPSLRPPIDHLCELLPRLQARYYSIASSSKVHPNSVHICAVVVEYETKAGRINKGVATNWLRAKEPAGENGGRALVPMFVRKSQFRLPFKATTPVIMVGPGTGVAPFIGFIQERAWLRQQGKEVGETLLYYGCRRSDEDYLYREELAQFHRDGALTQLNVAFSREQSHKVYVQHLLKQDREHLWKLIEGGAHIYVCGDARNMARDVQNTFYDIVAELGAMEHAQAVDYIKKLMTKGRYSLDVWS

Chain of CYP3A4 (P08684 2-503): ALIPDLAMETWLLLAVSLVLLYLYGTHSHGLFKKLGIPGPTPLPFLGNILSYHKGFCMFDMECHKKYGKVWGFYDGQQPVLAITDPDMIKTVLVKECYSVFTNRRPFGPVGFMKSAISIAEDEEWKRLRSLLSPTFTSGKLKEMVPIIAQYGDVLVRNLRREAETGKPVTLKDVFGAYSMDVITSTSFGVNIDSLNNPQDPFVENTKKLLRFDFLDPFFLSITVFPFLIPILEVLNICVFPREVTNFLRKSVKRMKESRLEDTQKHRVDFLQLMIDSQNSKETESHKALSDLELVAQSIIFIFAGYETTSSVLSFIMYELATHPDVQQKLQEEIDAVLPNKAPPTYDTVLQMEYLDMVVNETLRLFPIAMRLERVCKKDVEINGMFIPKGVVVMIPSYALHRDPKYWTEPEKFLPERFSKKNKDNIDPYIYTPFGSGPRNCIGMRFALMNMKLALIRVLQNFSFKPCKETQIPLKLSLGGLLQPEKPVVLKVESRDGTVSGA
Chain of CYP3A4 (P16435 2-677 partner): as the sequence (P16435 2-677 partner) above

SMILES | activity at 0.1 µM (CYP3A4) | activity at 0.25 µM (CYP2C9)
CC(=O)N1CCN(c2ccc(OC[C@H]3CO[C@](Cn4ccnc4)(c4ccc(Cl)cc4Cl)O3)cc2)CC1 (relative stereo) [ketoconazole] | < 40% | –
Nc1ccc(S(=O)(=O)Nc2ccnn2-c2ccccc2)cc1 [sulfaphenazole] | – | ~50%
